According to patent US8703438B2, “Ligand binding stabilization method for drug target identification” (The Regents of the University of California, priority 2008, dated 2014):

Experiments:
Type in all cases: binding
[1] = biological target: T1, proteins of human Jurkat cell lysate (EF-1alpha isoforms and others) (Homo sapiens, UniProt P00558); experiment: DARTS with DB-treated intact Jurkat cells, thermolysin, Coomassie staining and mass spectrometry of protected band; settings: DB vs DMSO, mass spectrometry
T1 construct: endogenous in cells; host or cells: Jurkat cells
T1 sequence (P00558 1-417): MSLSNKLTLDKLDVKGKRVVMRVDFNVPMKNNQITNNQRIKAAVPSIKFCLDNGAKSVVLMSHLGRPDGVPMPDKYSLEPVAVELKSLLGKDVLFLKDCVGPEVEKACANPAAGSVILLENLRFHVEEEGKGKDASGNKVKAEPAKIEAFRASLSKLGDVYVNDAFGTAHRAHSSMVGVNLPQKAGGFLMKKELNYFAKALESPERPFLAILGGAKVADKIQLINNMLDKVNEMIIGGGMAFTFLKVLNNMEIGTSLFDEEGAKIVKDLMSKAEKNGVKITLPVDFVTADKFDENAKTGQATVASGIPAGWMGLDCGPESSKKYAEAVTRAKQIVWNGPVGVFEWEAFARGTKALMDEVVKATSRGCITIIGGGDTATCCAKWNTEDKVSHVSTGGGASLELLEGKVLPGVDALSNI
Source text: (§1) The experiments above established that DARTS can efficiently test, screen, or verify drug-protein interactions when the protein is available in relatively pure form. For DARTS to be generally useful as a discovery tool, however, applicability to complex protein mixtures (such as cell lysates) would be desirable. […] Given that EF-1 alpha is a highly abundant protein, we first tested whether in the DARTS protocol DB would protect EF-1 alpha from proteolysis and result in a detectable difference.
(§2) For FIGS. 3A and 3C, intact Jurkat cells were treated with DB from 100 pg/mL to 1 μg/mL or DMSO control for 30 min. Cells were lysed (without washing, in these experiments) with M-PER (Pierce) supplemented with protease and phosphatase inhibitors. After centrifugation (14,000 rpm, 15 min), lysates were diluted to the same final volume and protein concentration with M-PER and proteolysed in reaction buffer [50 mM Tris-HCl pH 8.0, 50 mM NaCl, 10 mM CaCl2]. All steps were performed on ice or at 4° C. to help prevent premature protein degradation. Each sample was then quickly warmed to room temperature and proteolysed with 1 μg thermolysin for every 15 μg lysate for 10 min. To stop proteolysis, 0.5 M EDTA (pH 8.0) was added to each sample at a 1:10 ratio, mixed well, and placed on ice.
(§3) Gel bands were cut out and prepared for mass spec analysis with trypsin digestion as described in SI. Peptides were analyzed by LC/MS/MS on a Thermo LTQ-Orbitrap mass spectrometer with an Eksigent LC pump. For quantitative comparison of protein and peptide abundances, MS spectra were analyzed using the differential workflow of Rosetta Elucidator (Rosetta Inpharmatics) (54). Annotation was performed using PeptideTeller and ProteinTeller (see SI).
(§4) The result could indicate lower affinity binding of DB to PGK1, or secondary effects on protein abundance because in this experiment the cells were treated with drug in vivo.
(§5) Proteins were initially identified by searching the spectra against the human International Protein Index database (version 3.46) and the S. cerevisiae Swissprot database (May 2008) using the SEQUEST algorithm (Eng et al. (1994) J Am Soc Mass Spectrom 5: 976-989) integrated into the Bioworks software package. Each peptide met the following criteria: XCorr ≧2 (+1), ≧3 (+2), ≧4 (+3), ≧5 (+4), and DeltaCN>0.1. For quantitative comparison of protein and peptide abundances, MS spectra were analyzed using the differential workflow of the Rosetta Elucidator software system (Rosetta Inpharmatics) (Neubert et al. (2008) J Proteome Res 7: 2270-2279). Annotation was performed using PeptideTeller and ProteinTeller with a minimum probability of 0.99 and predicted error of 0.0. Protein ratio data were generated with a P-value cutoff of 0.01 for all proteins with a peptide number >1. Intensity scaling was performed against the mean of feature signals, with 10% of outliers removed from the baseline dataset. Similar results were obtained in analysis without intensity scaling (FIG. 9A).

[2] = biological target: T2, proteins of human Jurkat cell lysate (EF-1alpha isoforms and others) (Homo sapiens, UniProt P68104); experiment: as above; settings: DB vs DMSO, mass spectrometry
T2 construct: endogenous in cells; host or cells: Jurkat cells
T2 sequence (P68104 whole entry, canonical isoform): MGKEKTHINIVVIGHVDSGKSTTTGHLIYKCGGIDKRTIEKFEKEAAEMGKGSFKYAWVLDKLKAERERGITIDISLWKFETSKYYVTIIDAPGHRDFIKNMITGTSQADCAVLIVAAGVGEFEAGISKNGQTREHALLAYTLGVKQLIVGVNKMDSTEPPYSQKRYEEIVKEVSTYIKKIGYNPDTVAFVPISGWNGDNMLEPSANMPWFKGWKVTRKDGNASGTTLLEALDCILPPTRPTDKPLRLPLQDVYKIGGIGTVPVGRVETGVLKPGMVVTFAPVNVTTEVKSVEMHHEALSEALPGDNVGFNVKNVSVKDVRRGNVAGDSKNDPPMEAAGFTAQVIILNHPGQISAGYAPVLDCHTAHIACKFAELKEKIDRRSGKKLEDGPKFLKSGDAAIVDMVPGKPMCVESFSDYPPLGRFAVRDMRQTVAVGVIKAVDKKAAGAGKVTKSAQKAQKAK
Source text: as §1, §2, §3, §4, §5

[3] = system: proteins of human Jurkat cell lysate (EF-1alpha isoforms and others); experiment: as above; settings: DB-treated Jurkat cells, 1 μg/mL, FIG. 3A
Source text: as §1, §2, §3, §4, §5

[4] = biological target: T3, proteins of human Jurkat cell lysate (EF-1alpha isoforms and others) (Homo sapiens, UniProt Q13838); experiment: as above; settings: DB vs DMSO, mass spectrometry
T3 construct: endogenous in cells; host or cells: Jurkat cells
T3 sequence (Q13838 whole entry, canonical isoform): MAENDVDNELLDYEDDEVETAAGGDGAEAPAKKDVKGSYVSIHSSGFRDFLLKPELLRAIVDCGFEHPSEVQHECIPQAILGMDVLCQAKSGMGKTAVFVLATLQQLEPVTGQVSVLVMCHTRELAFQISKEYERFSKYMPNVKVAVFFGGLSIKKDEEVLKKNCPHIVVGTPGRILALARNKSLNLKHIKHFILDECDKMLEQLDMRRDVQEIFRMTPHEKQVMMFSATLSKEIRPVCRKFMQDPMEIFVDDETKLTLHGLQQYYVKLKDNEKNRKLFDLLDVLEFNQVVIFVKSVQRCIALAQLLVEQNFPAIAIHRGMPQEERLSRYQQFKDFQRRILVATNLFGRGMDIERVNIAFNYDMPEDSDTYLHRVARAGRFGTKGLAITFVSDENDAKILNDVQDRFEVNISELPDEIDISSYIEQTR
Source text: as §1, §2, §3, §4, §5

[5] = biological target: T4, proteins of human Jurkat cell lysate (EF-1alpha isoforms and others) (Homo sapiens, UniProt Q9P2R7); experiment: as above; settings: DB vs DMSO, mass spectrometry
T4 construct: endogenous in cells; host or cells: Jurkat cells
T4 sequence (Q9P2R7 53-463): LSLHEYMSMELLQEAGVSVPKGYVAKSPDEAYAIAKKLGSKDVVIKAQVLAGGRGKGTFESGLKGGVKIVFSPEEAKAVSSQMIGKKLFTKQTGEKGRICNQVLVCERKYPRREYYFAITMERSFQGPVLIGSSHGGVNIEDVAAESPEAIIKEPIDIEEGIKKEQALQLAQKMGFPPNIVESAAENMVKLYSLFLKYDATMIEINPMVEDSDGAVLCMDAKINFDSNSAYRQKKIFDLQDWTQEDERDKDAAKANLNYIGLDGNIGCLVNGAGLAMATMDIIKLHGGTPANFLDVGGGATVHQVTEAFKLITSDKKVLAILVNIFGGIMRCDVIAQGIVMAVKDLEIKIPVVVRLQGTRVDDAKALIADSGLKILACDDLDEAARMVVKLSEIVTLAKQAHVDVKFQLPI
Source text: as §1, §2, §3, §4, §5

[6] = biological target: T5, proteins of human Jurkat cell lysate (EF-1alpha isoforms and others) (Homo sapiens, UniProt P06733); experiment: as above; settings: DB vs DMSO, mass spectrometry
T5 construct: endogenous in cells; host or cells: Jurkat cells
T5 sequence (P06733 whole entry, canonical isoform): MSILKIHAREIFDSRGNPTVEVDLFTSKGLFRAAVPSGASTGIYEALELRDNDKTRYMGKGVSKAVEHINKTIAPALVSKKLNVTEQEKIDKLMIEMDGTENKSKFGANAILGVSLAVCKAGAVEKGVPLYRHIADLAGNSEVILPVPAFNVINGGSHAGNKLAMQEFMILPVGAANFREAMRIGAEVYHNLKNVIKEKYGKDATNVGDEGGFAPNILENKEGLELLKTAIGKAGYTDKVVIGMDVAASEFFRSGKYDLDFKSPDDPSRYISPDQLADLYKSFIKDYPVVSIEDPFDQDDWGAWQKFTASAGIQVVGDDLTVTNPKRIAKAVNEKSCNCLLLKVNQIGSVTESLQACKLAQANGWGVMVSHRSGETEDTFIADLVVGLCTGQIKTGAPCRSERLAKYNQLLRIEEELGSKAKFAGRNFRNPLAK
Source text: as §1, §2, §3, §4, §5

[7] = biological target: T6, proteins of human Jurkat cell lysate (EF-1alpha isoforms and others) (Homo sapiens, UniProt Q05639); experiment: as above; settings: DB vs DMSO, mass spectrometry
T6 construct: endogenous in cells; host or cells: Jurkat cells
T6 sequence (Q05639 whole entry, canonical isoform): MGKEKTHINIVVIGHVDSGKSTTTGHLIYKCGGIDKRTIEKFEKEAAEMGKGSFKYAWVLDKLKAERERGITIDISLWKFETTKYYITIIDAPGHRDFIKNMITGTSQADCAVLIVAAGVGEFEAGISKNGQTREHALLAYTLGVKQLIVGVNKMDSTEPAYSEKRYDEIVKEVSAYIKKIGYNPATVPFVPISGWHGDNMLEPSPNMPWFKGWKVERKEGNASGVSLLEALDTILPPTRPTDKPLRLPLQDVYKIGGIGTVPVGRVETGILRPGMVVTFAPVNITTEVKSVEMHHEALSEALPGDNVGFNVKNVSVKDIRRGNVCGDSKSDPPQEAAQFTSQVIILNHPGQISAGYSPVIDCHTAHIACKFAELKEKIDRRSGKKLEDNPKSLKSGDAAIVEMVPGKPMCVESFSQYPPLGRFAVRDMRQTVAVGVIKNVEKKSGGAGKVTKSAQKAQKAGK
Source text: as §1, §2, §3, §4, §5

EF-1 alpha = biological target: T7, EF-1 alpha (Homo sapiens, UniProt P68104); experiment: DARTS with DB, detection of EF-1 alpha by immunoblotting
T7 construct: endogenous in cells; host or cells: Jurkat cells
T7 sequence (P68104 2-462): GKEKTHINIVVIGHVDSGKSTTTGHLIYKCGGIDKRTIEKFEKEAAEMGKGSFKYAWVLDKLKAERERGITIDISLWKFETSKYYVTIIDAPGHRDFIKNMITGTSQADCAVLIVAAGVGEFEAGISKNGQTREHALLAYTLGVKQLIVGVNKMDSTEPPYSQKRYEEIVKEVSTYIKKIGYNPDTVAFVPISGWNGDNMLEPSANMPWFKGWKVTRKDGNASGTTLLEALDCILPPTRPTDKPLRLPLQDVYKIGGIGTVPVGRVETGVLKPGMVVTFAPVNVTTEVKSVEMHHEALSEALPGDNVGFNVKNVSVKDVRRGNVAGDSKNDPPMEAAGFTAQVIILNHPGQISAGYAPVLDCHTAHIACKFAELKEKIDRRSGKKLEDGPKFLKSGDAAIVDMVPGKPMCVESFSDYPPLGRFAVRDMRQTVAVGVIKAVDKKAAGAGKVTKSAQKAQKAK
Procedure: FIG. 7 illustrates DARTS with Didemnin B using whole-cell lysates. Lysates from untreated human Jurkat cells were incubated with DMSO control or DB (1 ng/mL, 10 ng/mL, 100 ng/mL, 300 ng/mL, and 1 μg/mL) for 30 min at room temperature. Each sample was then split into two, which underwent thermolysin proteolysis, or mock digestion, respectively, followed by western blot analysis. Protection can be seen starting at 100 ng/mL.
Examination of the protected band and the matching gel region of the control lane by mass spectrometry confirmed that EF-1 alpha was the primary protein present at higher abundance in the DB-treated sample (FIG. 3B). […] The generality of this approach is further supported by experiments using diverse protein-drug pairs ranging from nano- to micro-molar: mTOR-rapamycin, COX-2celecoxib, and SCF E3 ubiquitin ligase-inhibitor (FIG. 8). Furthermore, DARTS is not enzyme specific, and much higher overall digestion efficiency can be achieved using other proteases while retaining protection of the target protein (see Example 2 and FIG. 9).
For FIGS. 3A and 3C, intact Jurkat cells were treated with DB from 100 pg/mL to 1 μg/mL or DMSO control for 30 min. […]
For FIG. 7, human Jurkat cells were lysed in M-PER (Pierce) supplemented with protease and phosphatase inhibitors. Protein concentration was determined by BCA Protein Assay kit (Pierce). […]

## CC[C@H](C)[C@H]1NC(=O)[C@@H](NC(=O)[C@@H](CC(C)C)N(C)C(=O)[C@@H]2CCCN2C(=O)C(C)O)[C@@H](C)OC(=O)[C@H](Cc2ccc(OC)cc2)N(C)C(=O)[C@@H]2CCCN2C(=O)[C@H](CC(C)C)NC(=O)[C@@H](C)C(=O)[C@H](C(C)C)OC(=O)C[C@@H]1O (stereo partly drawn) [DB, didemnin B]
[1]
  enrichment of PGK1 in protected band: 2.4 fold
[2]
  enrichment of EEF1A1 in protected band: 18.7 fold
[3]
  protected band on Coomassie-stained gel after thermolysin: strong protected band
[4]
  enrichment of BAT1 in protected band: 7.5 fold
[5]
  enrichment of SUCLA2 in protected band: 11.7 fold
[6]
  change of ENO1 in protected band (depleted): −1.8 fold
[7]
  enrichment of EEF1A2 in protected band: 21.7 fold
EF-1 alpha; Jurkat lysates incubated in vitro 30 min, thermolysin, western blot, FIG. 7
  concentration at which protection starts: 100 ng/mL
EF-1 alpha; intact cells treated and lysates incubated in vitro
  proteolytic protection of EF-1 alpha by immunoblotting: concentration dependent proteolytic protection
